For one compound, IC50 results are on record in US6043246A, “Urea derivatives” (Banyu Pharmaceutical Co., Ltd., priority 1996, dated 2000).

This assay has as its target T1, human NPY Y5 receptor (Homo sapiens, UniProt Q15761).
T1 construct: expressed in transfected cells; host or cells: COS-7, CHO and LM(tk-) cells (ATCC); vectors pcDNA3, pRc/RSV, pCI-neo; membrane preparations
T1 sequence (Q15761 1-445): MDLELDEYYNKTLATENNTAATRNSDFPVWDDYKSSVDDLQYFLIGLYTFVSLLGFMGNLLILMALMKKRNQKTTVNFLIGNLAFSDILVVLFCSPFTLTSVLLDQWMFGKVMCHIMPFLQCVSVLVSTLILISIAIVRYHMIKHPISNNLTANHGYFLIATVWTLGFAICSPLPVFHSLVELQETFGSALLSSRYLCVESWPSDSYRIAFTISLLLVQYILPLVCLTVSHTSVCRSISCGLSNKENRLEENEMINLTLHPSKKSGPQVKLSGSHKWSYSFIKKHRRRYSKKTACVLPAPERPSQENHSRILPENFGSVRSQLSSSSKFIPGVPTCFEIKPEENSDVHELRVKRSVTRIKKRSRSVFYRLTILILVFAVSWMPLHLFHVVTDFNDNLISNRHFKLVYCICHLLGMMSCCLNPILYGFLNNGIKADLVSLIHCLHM
Kind of assay: Test of Inhibition of NPY Binding ([125I] peptide YY binding to membrane preparations). Particulars: membranes of cells expressing NPY Y5 receptor, 25° C., 2 hours, read-out: concentration needed to inhibit 50% of the specific binding of peptide YY (IC50 value). The source says:
cDNA Sequence encoding a human NPY Y5 receptor [International Publication WO 96/16542] was cloned into expression vectors pcDNA3, pRc/RSV (manufactured by Invitrogen) and pCI-neo (manufactured by Promega). Using the cationic lipid method [see Proceedings of the National Academy of Science of the United States of America, vol.84, p.7413 (1987)], host cells COS-7, CHO and LM(tk-) (American Type Culture Collection) were transfected with the thus prepared expression vectors to obtain cells in which the NPY Y5 receptor had been expressed.
Each of the membrane preparations thus prepared from the cells in which the NPY Y5 receptor had been expressed was incubated together with each compound to be tested and 20,000 cpm of [^125 I] peptide YY (manufactured by Amersham) at 25° C. for 2 hours in an assay buffer solution (25 mM HEPES buffer, pH 7.4, containing 10 mM magnesium chloride, 1 mM phenylmethylsulfonyl fluoride and 0.1% bacitracin) and then, the reaction mixture was filtered through a glass filter GF/C. After washing with 50 mM Tris buffer, pH 7.4, containing 0.3% BSA, radioactivity on the glass filter was measured using a gamma counter. […] As the result, IC50 value of the compound of Example 17 was calculated to be […].

`COc1ccc(-c2cc(NC(=O)N3CCN(c4cccc(Cl)c4)CC3)[nH]n2)cc1` [Example 17, 3-[4-(3-chlorophenyl)piperazinyl]carbonylamino-5-(4-methoxyphenyl)pyrazole]: the IC50 was determined as 27 nM.
